From US12569534B2, “Therapeutic nanoparticles by coacervate complexation and their use for treating bacteria” (priority 2018, dated 2026)

Key:
[1] = CS release by dialysis; assay type: physicochemical; conditions: 50 k MWCO membrane, 37° C., pH 7.4 and pH 5.0
Procedure: CS release from the CS NPs was studied using a dialysis tube with 50 k MWCO membrane (Pur-A-Lyzer™ Maxi Dialysis Kit, Sigma-Aldrich) in 0.15 M phosphate buffer (pH 7.4) and in 0.15 M acetate buffer solution (pH 5.0). […] Samples were each placed into a dialysis tube at 37° C. under gentle stirring. At predetermined time points, the samples were collected and analyzed for CS content using HPLC.

[2] = tested on: A. baumannii; assay: MIC/MBC broth microdilution, Example 2; assay type: cell-based, Acinetobacter baumannii; conditions: Example 2 CS NPs
Procedure: (§1) Reference bacterial stains were purchased from ATCC. Clinical isolates of carbapenem-resistant bacteria were obtained from National Health Research Institutes (NHRI) and Tri-Service General Hospital (TSGH). MIC is defined as the lowest concentration of antibiotics required to inhibit the growth of bacteria. MBC is defined as the lowest concentration of antibiotics required to eradicate microorganisms. The MICs of CS and the CS NPs were determined using a broth microdilution method. Bacterial suspensions were adjusted to a turbidity of McFarland 0.5±0.05 and cultured overnight with different concentrations of CS or CS NPs. A control group without antimicrobial treatment was prepared as a reference. Following overnight incubation, solution turbidity was determined by visual inspection. Culture wells with no observable turbidity were further sub-cultured for MBC evaluation. Solutions from the clear wells were deposited onto an agar plate and cultured overnight to determine the MBCs.
To evaluate the antibacterial efficacy of the CS NPs of this study, their MIC and MBC were assessed against 5 reference bacterial strains and 20 clinical isolates of carbapenem-resistant A. baumannii, E. coli, K. pneumoniae, and P. aeruginosa according to the procedures set forth in EXAMPLE 1. Reference bacterial stains were purchased from ATCC. Carbapenem-resistant clinical isolated were obtained from NHRI.

[3] = Maximum tolerated dose, intravenous; conditions: BALB/c mice, tail vein, Example 1 study
Excerpt: See e,g., Li et al, International Journal of Pharmaceutics, 2016, 515, 20-29; and Barnett et al., British Journal of Pharmacology and Chemotherapy, 1964, 23, 552-574. The highest dosage at which all examined subjects remained alive was defined as the MTD.
For this study, mice (8 weeks, Balb/c mice) were obtained from Bio-LASCO Taiwan Co., Ltd (Taipei, Taiwan). […] The highest dosage at which all examined subjects remained alive was defined as the MTD.

[4] = tested on: K. pneumoniae; assay: MIC/MBC broth microdilution, Example 1; assay type: cell-based, Klebsiella pneumoniae; conditions: Example 1 CS NPs
Procedure: (§2) To evaluate antibacterial efficacy of the CS NPs, their minimum inhibitory concentration (MIC) and minimum bactericidal concentration (MBC) were assessed against 5 reference bacterial strains and 39 clinical isolates of carbapenem-resistant A. baumannii, P. aeruginosa, E. coli, and K. pneumoniae.
as §1

[5] = tested on: E. Coli ATCC 25922; assay: MIC and MBC of different treatments, Example 3; assay type: cell-based
Procedure: as §1

[6] = tested on: P. aeruginosa; assay: MIC/MBC broth microdilution, Example 1; assay type: cell-based, Pseudomonas aeruginosa; conditions: Example 1 CS NPs
Procedure: as §2, §1

[7] = tested on: A. baumannii 17978; assay: Murine model of A. baumannii pneumonia, survival; assay type: in vivo; conditions: C57BL/6 mice, 5 mg/kg i.v. twice a day
Procedure: Briefly, A. baumannii 17978 were grown in 30 mL LB broth under shaking at 37° C. to reach the mid-logarithmic phase. The bacteria were then pelleted by centrifugation at 4,000 g for 15 minutes. The bacteria pellet was resuspended in PBS and mixed with 5% mucin derived from porcine stomach (type 3; Sigma-Aldrich, Taiwan).
To induce A. baumannii pneumonia, 8-week-old C57BL/6 mice (National Laboratory Animal Center, Taiwan) were first anesthetized with 2% tribromoethanol (Avertin; 0.018 mL/g). 6.07×10^8 CFU of A. baumannii 17978 were then administered to the mice via intra-tracheal injection to induce pneumonia (FIG. 4A). At 2 hours post-inoculation, the mice were treated twice a day with PBS (as the control), CS, or CS NPs at 5 mg/kg via intravenous injections.
The efficacy between CS and the CS NPs was compared by survival analysis. The difference in survival among the groups was analyzed by a Log-rank test using GraphPad Prism. Treatment efficacy of CS and CS NPs was observed 36 hour post-infection as no mortality was recorded in either of the two drug treatment groups whereas 37.5% of the control group animals were deceased. […] The survival outcome supports retention of CS's antimicrobial activity following nanoparticle assembly.

[8] = mouse, in vivo, iv, 4 mg/kg
Procedure: A group of mice were injected intravenously with sterile PBS through the tail vein as negative control. 24 hours after the last treatment, 0.5 mL of blood was collected from the animals for comprehensive metabolic panel analysis. The data was analyzed by Student's t-test followed by Dunnett's multiple comparison tests using GraphPad Prism (GraphPad Software, San Diego, CA). p values smaller than 0.05 were considered significant.

[9] = clinical carbapenem-resistant isolate A. baumannii NHRI 1
[10] = clinical carbapenem-resistant isolate A. baumannii NHRI 2
[11] = clinical carbapenem-resistant isolate A. baumannii NHRI 3
[12] = clinical carbapenem-resistant isolate A. baumannii NHRI 4
[13] = clinical carbapenem-resistant isolate A. baumannii NHRI 5
[14] = reference strain A. baumannii 17978
[15] = reference strain A. baumannii 19606
[16] = clinical carbapenem-resistant K. pneumoniae NHRI 1
[17] = clinical carbapenem-resistant K. pneumoniae NHRI 2
[18] = clinical carbapenem-resistant K. pneumoniae NHRI 4
[19] = clinical carbapenem-resistant K. pneumoniae NHRI 5
[20] = clinical carbapenem-resistant K. pneumoniae TSGH 1
[21] = clinical carbapenem-resistant K. pneumoniae TSGH 3
[22] = clinical carbapenem-resistant K. pneumoniae TSGH 5
[23] = clinical carbapenem-resistant K. pneumoniae TSGH 7
[24] = clinical carbapenem-resistant K. pneumoniae TSGH 9
[25] = clinical carbapenem-resistant K. pneumoniae TSGH 11
[26] = clinical carbapenem-resistant K. pneumoniae TSGH 13
[27] = clinical carbapenem-resistant K. pneumoniae TSGH 15
[28] = clinical carbapenem-resistant K. pneumoniae TSGH 16
[29] = clinical carbapenem-resistant K. pneumoniae TSGH 17
[30] = clinical carbapenem-resistant K. pneumoniae TSGH 18
[31] = clinical carbapenem-resistant K. pneumoniae TSGH 19
[32] = clinical carbapenem-resistant P. aeruginosa NHRI 1
[33] = clinical carbapenem-resistant P. aeruginosa NHRI 2
[34] = clinical carbapenem-resistant P. aeruginosa NHRI 3
[35] = clinical carbapenem-resistant P. aeruginosa NHRI 4
[36] = clinical carbapenem-resistant P. aeruginosa NHRI 5
[37] = reference strain P. aeruginosa 27853

## colistin [CS]
[1]
  release profile in dialysis: rapidly dialyzed from the setup
[2]; [9]
  MBC: 2 µg/mL
  MIC: 1 µg/mL
[2]; [10]
  MBC: 2 µg/mL
  MIC: 2 µg/mL
[2]; [11]
  MBC: 2 µg/mL
  MIC: 1 µg/mL
[2]; [12]
  MBC: 4 µg/mL
  MIC: 1 µg/mL
[2]; [13]
  MBC: 2 µg/mL
  MIC: 1 µg/mL
[2]; [14]
  MBC: 2 µg/mL
  MIC: 2 µg/mL
[2]; [15]
  MBC: 4 µg/mL
  MIC: 2 µg/mL
[3]
  MTD: 10 mg/kg
[4]; [16]
  MBC: 4 µg/mL
  MIC: 2 µg/mL
[4]; [17]
  MBC: 2 µg/mL
  MIC: 2 µg/mL
[4]; [18]
  MBC: 2 µg/mL
  MIC: 2 µg/mL
[4]; [19]
  MBC: 2 µg/mL
  MIC: 2 µg/mL
[4]; [20]
  MBC: 2 µg/mL
  MIC: 2 µg/mL
[4]; [21]
  MBC: 1 µg/mL
  MIC: 1 µg/mL
[4]; [22]
  MBC: 1 µg/mL
  MIC: 1 µg/mL
[4]; [23]
  MBC: 1 µg/mL
  MIC: 1 µg/mL
[4]; [24]
  MBC: 2 µg/mL
  MIC: 1 µg/mL
[4]; [25]
  MBC: 4 µg/mL
  MIC: 4 µg/mL
[4]; [26]
  MBC: 2 µg/mL
  MIC: 1 µg/mL
[4]; [27]
  MBC: 1 µg/mL
  MIC: 1 µg/mL
[4]; [28]
  MBC: 2 µg/mL
  MIC: 2 µg/mL
[4]; [29]
  MBC: 1 µg/mL
  MIC: 1 µg/mL
[4]; [30]
  MBC: 1 µg/mL
  MIC: 1 µg/mL
[4]; [31]
  MBC: 4 µg/mL
  MIC: 1 µg/mL
[5]
  MBC: 4 µg/mL
  MIC: 2 µg/mL
[6]; [32]
  MBC: 2 µg/mL
  MIC: 2 µg/mL
[6]; [33]
  MBC: 4 µg/mL
  MIC: 2 µg/mL
[6]; [34]
  MBC: 8 µg/mL
  MIC: 2 µg/mL
[6]; [35]
  MBC: 8 µg/mL
  MIC: 4 µg/mL
[6]; [36]
  MBC: 4 µg/mL
  MIC: 2 µg/mL
[6]; [37]
  MBC: 1 µg/mL
  MIC: 1 µg/mL
[7]; 36 hour post-infection
  mortality: no mortality
[7]; 72 hours of observation
  surviving mice out of 8 assessed animals: 4
[8]
  other parameters in the comprehensive metabolic panel: neither CS nor the CS NPs induced any notable changes
